From the supplement of paper PMC4932681
Counter-ions that a name gives are not always drawn.

Columns and labels:
T-47D [1] = experiment: relative IC50 (midpoint of fitted logistic curve, plateau may be below 50% inhibition; CellTiter-Glo viability); higher = less potent; details: 72 h
Summary of the method: (§1)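 CellTiter-Glo viability was the readout, taken on a PHERAstar and normalised to vehicle-only and positive controls. It was measured after breast cancer cell lines and their resistant derivatives spent 72 h at 37 °C in 384-well plates containing library drugs at five concentrations spanning a 10 000-fold range, with 1 μM of the selecting drug in the medium of resistant lines. From logistic dose–response fits in the Breeze pipeline came drug sensitivity score, relative IC50 (curve midpoint) and top-dose inhibition.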

T-47D Tam2 [2] = experiment: as above; details: 4-OH-tamoxifen in medium 1 µM; 72 h
Summary of the method: as §1

BT-474 Tam2 [3] = experiment: as above; details: 4-OH-tamoxifen in medium 1 µM; 72 h
Summary of the method: as §1

BT-474 [4] = experiment: as above; details: 72 h
Summary of the method: as §1

ZR-75-1 Tam2 [5] = experiment: as above; details: 4-OH-tamoxifen in medium 1 µM; 72 h
Summary of the method: as §1

ZR-75-1 [6] = experiment: as above; details: 72 h
Summary of the method: as §1

ZR-75-1 Tam1 [7] = experiment: as above; details: 4-OH-tamoxifen in medium 1 µM; 72 h
Summary of the method: as §1

BT-474 Tam1 [8] = experiment: as above; details: 4-OH-tamoxifen in medium 1 µM; 72 h
Summary of the method: as §1

MCF-7 [9] = experiment: as above; details: 72 h
Summary of the method: as §1

MCF-7 Tam1 [10] = experiment: as above; details: 4-OH-tamoxifen in medium 1 µM; 72 h
Summary of the method: as §1

T-47D Tam1 [11] = experiment: as above; details: 4-OH-tamoxifen in medium 1 µM; 72 h
Summary of the method: as §1

T-47D [12] = experiment: drug sensitivity score (DSS) (DSS (dimensionless)); higher = more sensitive; extreme values may be limits of the assay; details: 72 h
Summary of the method: as §1

T-47D Tam2 [13] = experiment: as above; details: 4-OH-tamoxifen in medium 1 µM; 72 h
Summary of the method: as §1

BT-474 Tam2 [14] = experiment: as above; details: 4-OH-tamoxifen in medium 1 µM; 72 h
Summary of the method: as §1

BT-474 [15] = experiment: as above; details: 72 h
Summary of the method: as §1

ZR-75-1 Tam2 [16] = experiment: as above; details: 4-OH-tamoxifen in medium 1 µM; 72 h
Summary of the method: as §1

ZR-75-1 [17] = experiment: as above; details: 72 h
Summary of the method: as §1

ZR-75-1 Tam1 [18] = experiment: as above; details: 4-OH-tamoxifen in medium 1 µM; 72 h
Summary of the method: as §1

BT-474 Tam1 [19] = experiment: as above; details: 4-OH-tamoxifen in medium 1 µM; 72 h
Summary of the method: as §1

MCF-7 [20] = experiment: as above; details: 72 h
Summary of the method: as §1

MCF-7 Tam1 [21] = experiment: as above; details: 4-OH-tamoxifen in medium 1 µM; 72 h
Summary of the method: as §1

T-47D Tam1 [22] = experiment: as above; details: 4-OH-tamoxifen in medium 1 µM; 72 h
Summary of the method: as §1

Row | Structure (SMILES) | relative IC50 (T-47D [1]; 4-OH-tamoxifen in medium 0 µM) [µM] | relative IC50 (T-47D [1]; 4-OH-tamoxifen in medium 1 µM) [µM] | relative IC50 (T-47D Tam2 [2]) [µM] | relative IC50 (BT-474 Tam2 [3]) [µM] | relative IC50 (BT-474 [4]; 4-OH-tamoxifen in medium 1 µM) [µM] | relative IC50 (ZR-75-1 Tam2 [5]) [µM] | relative IC50 (ZR-75-1 [6]; 4-OH-tamoxifen in medium 0 µM) [µM] | relative IC50 (ZR-75-1 [6]; 4-OH-tamoxifen in medium 1 µM) [µM] | relative IC50 (ZR-75-1 Tam1 [7]) [µM] | relative IC50 (BT-474 Tam1 [8]) [µM] | relative IC50 (MCF-7 [9]; 4-OH-tamoxifen in medium 0 µM) [µM] | relative IC50 (MCF-7 [9]; 4-OH-tamoxifen in medium 1 µM) [µM] | relative IC50 (MCF-7 Tam1 [10]) [µM] | relative IC50 (T-47D Tam1 [11]) [µM] | drug sensitivity score (T-47D [12]; 4-OH-tamoxifen in medium 0 µM) | drug sensitivity score (T-47D [12]; 4-OH-tamoxifen in medium 1 µM) | drug sensitivity score (T-47D Tam2 [13]) | drug sensitivity score (BT-474 Tam2 [14]) | drug sensitivity score (BT-474 [15]; 4-OH-tamoxifen in medium 0 µM) | drug sensitivity score (BT-474 [15]; 4-OH-tamoxifen in medium 1 µM) | drug sensitivity score (ZR-75-1 Tam2 [16]) | drug sensitivity score (ZR-75-1 [17]; 4-OH-tamoxifen in medium 0 µM) | drug sensitivity score (ZR-75-1 [17]; 4-OH-tamoxifen in medium 1 µM) | drug sensitivity score (ZR-75-1 Tam1 [18]) | drug sensitivity score (BT-474 Tam1 [19]) | drug sensitivity score (MCF-7 [20]; 4-OH-tamoxifen in medium 0 µM) | drug sensitivity score (MCF-7 [20]; 4-OH-tamoxifen in medium 1 µM) | drug sensitivity score (MCF-7 Tam1 [21]) | drug sensitivity score (T-47D Tam1 [22]) | relative IC50 (BT-474 [4]; 4-OH-tamoxifen in medium 0 µM) [µM]
1 | CN1CC[C@H](c2c(O)cc(O)c3c(=O)cc(-c4ccccc4Cl)oc23)[C@H](O)C1 [Alvocidib (Flavopiridol)] | 0.408 | > 10 | 0.184 | 0.363 | 0.388 | 0.355 | 0.251 | 0.246 | 0.477 | 0.217 | 0.187 | 0.515 | 0.316 | 0.174 | 7.14 | 0 | 7.73 | 16.9 | 1.69 | 14.1 | 10.1 | 10.4 | 9.96 | 7.64 | 19.8 | 13.6 | 9.86 | 4.64 | 16.8 | 
2 | NCCCNCCSP(=O)(O)O [Amifostine] | > 10 | > 10 | > 10 | > 10 | > 10 | > 10 | > 10 | > 10 | > 10 | > 10 | > 10 | > 10 | > 10 | > 10 | 0 | 0 | 0 | 0 | 0 | 0 | 0 | 0 | 0 | 0 | 0 | 0 | 0 | 0 | 0 | > 10
3 | NCC(=O)CCC(=O)O [Aminolevulinic acid] | > 10 | > 10 | > 10 | > 10 | > 10 | > 10 | > 10 | > 10 | > 10 | > 10 | > 10 |  | > 10 | > 10 | 0 | 0 | 0 | 0 | 0 | 0 | 0 | 0 | 0 | 0 | 0 | 0 | 0.809 | 0 | 0 | > 10
4 | O=C1CN2Cc3c(ccc(Cl)c3Cl)N=C2N1 [Anagrelide] | > 10 | > 10 | > 10 | > 10 | > 10 | > 10 | > 10 | > 10 | > 10 | > 10 | > 10 | > 10 | > 10 | > 10 | 0 | 0 | 0 | 0 | 0 | 0 | 0 | 0 | 0 | 0 | 0 | 0 | 0 | 0 | 0 | > 10
5 | CC(C)(C#N)c1cc(Cn2cncn2)cc(C(C)(C)C#N)c1 [Anastrozole] | > 10 | > 10 | > 10 | > 10 | > 10 | > 10 | > 10 | > 10 | > 10 | > 10 | > 10 | > 10 | > 10 | > 10 | 0 | 0 | 0 | 0 | 0 | 0 | 0 | 0 | 0 | 0 | 0 | 0 | 0 | 0 | 0 | > 10
6 | Cn1c(CCCC(=O)O)nc2cc(N(CCCl)CCCl)ccc21 [Bendamustine (hydrochloride hydrate)] | > 10 | > 10 | > 10 | > 10 | > 10 | > 10 | > 10 | > 10 | > 10 | > 10 |  | > 10 | > 10 | > 10 | 0 | 0 | 0 | 0 | 0 | 0 | 0 | 0 | 0 | 0 | 0 | 0.159 | 0 | 0 | 0 | > 10
7 | CCNC(=O)CCC/C=C\C[C@@H]1[C@@H](/C=C/[C@@H](O)CCc2ccccc2)[C@H](O)C[C@@H]1O [Bimatoprost] | > 5.5 | > 5.5 | > 5.5 | > 5.5 | > 5.5 | > 5.5 | > 5.5 | > 5.5 | > 5.5 | > 5.5 |  | > 5.5 | > 5.5 | > 5.5 | 0 | 0.0302 | 0 | 0 | 0 | 0 | 0 | 0 | 0 | 0 | 0 | 0 | 0 | 0 | 0 | > 5.5
8 | CC(C)C[C@H](NC(=O)[C@H](Cc1ccccc1)NC(=O)c1cnccn1)B(O)O [Bortezomib] | 0.00627 | 0.00831 | 0.0055 | 0.00598 | 0.00372 | 0.00896 | 0.0731 | 0.0314 | 0.0201 | 0.00355 | 0.00682 | 0.0445 | 0.0399 | 0.00279 | 25.6 | 23.7 | 26.5 | 26.7 | 13.2 | 29.1 | 16.4 | 9.65 | 10.7 | 13.9 | 29.5 | 19.9 | 14 | 11.3 | 30.4 | 0.0127
9 | Nc1cc(C(F)(F)F)c(-c2cc(N3CCOCC3)nc(N3CCOCC3)n2)cn1 [Buparlisib (BKM-120)] | 0.931 | 1.52 | 1.09 | 1.4 | 0.87 | 0.963 | 0.99 | 0.931 | 0.71 | 1.35 | 0.561 | 0.622 | 1.23 | 0.687 | 9.27 | 7.4 | 8.09 | 8.94 | 5.66 | 11.1 | 7.44 | 6.24 | 5.88 | 7.01 | 9.32 | 10.8 | 9.9 | 4.41 | 9.5 | 1.73
10 | CS(=O)(=O)OCCCCOS(C)(=O)=O [Busulfan] | > 100 | > 100 | > 100 | > 100 |  | > 100 | > 100 | > 100 | > 100 | > 100 | > 100 |  | > 100 | > 100 | 0 | 0 | 0 | 0 | 0 | 0 | 0 | 0 | 0 | 0 | 0 | 0 | 0.0038 | 0 | 0 | > 100
11 | C#Cc1cccc(Nc2ncnc3cc(OC)c(OCCCCCCC(=O)NO)cc23)c1 [CUDC-101] | 1.19 | 0.803 | 1.18 | 1.13 | 0.137 | 1.74 | 1.6 | 1.92 | 1.15 | 0.68 | 1.72 | 1.54 | 3.52 | 0.656 | 10.3 | 12.3 | 8.37 | 10.2 | 9.66 | 21.9 | 4.71 | 3.69 | 4.14 | 4.08 | 12.6 | 7.91 | 8.89 | 2.26 | 11.7 | 1.19
12 | CC[C@@]1(O)C(=O)OCc2c1cc1n(c2=O)Cc2cc3ccccc3nc2-1 [Camptothecin] | 0.0442 |  | 0.302 | > 5 | > 5 | 0.0598 | 0.0384 | 0.0956 | 0.0497 | > 5 | 0.0326 | 0.649 | 1.35 | 0.0326 | 15.6 | 3.21 | 4.93 | 0 | 0 | 0 | 13.3 | 13.9 | 7.82 | 12.4 | 0 | 23 | 8.74 | 3 | 15.6 | > 5
13 | O=C(O)C1(C(=O)O)CCC1.[NH2-].[NH2-].[Pt+2] [Carboplatin] | > 10 | > 10 | > 10 | > 10 | > 10 | > 10 | > 10 | > 10 | > 10 | > 10 | > 10 | > 10 | > 10 | > 10 | 0 | 0 | 0 | 0 | 0 | 0 | 0 | 0 | 0 | 0 | 0 | 0 | 0 | 0 | 0 | > 10
14 | CC(C)C[C@H](NC(=O)[C@H](CCc1ccccc1)NC(=O)CN1CCOCC1)C(=O)N[C@@H](Cc1ccccc1)C(=O)N[C@@H](CC(C)C)C(=O)[C@@]1(C)CO1 [Carfilzomib] | 0.00882 | 0.00282 | 0.0334 | 0.0153 | 0.00367 | 0.0519 | 0.0317 | 0.0247 | 0.0471 | 0.00459 | 0.0197 | 0.0158 | 0.0746 | 0.0114 | 23.1 | 25.8 | 17.1 | 20.8 | 14.6 | 28.9 | 11.8 | 14 | 16.4 | 12.8 | 27.9 | 17.9 | 21 | 12.4 | 22.7 | 0.0256
15 | O=NN(CCCl)C(=O)NCCCl [Carmustine] | > 10 | > 10 | > 10 | > 10 | > 10 | > 10 | > 10 | > 10 | > 10 | > 10 | > 10 | > 10 | > 10 | > 10 | 0 | 0 | 0 | 0 | 0 | 0 | 0 | 0 | 0 | 0 | 0 | 0 | 0 | 0 | 0 | > 10
